Tests used:
[1] = topical ocular administration, background statement; cited from earlier work
[2] = system: SIRC (Statens Serum Institut Rabbit Cornea, ATCC CCL-60) cells
Description: Permeability assays were performed in triplicate and repeated at least in three independent assays on different days. For this purpose, SIRC (Statens Serum Institut Rabbit Cornea, ATCC® CCL-60™) cells were seeded in sterile 6-well microfilter plates and maintained in culture until confluence. SIRC cells were cultured in Eagle's Minimum Essential Medium (EMEM) supplemented with 10% foetal bovine serum (FBS) and with 1% of penicillin-streptomycin solution at 37° C. and 10% CO2 in air. Ciprofloxacin was dissolved in dimethyl sulfoxide (DMSO) to prepare a concentrated stock solution which was further diluted in culture medium to obtain a final concentration of 20 μg/ml.
The cells were treated with ciprofloxacin alone or in combination with the different concentrations of each corticosteroid for 15 minutes. After the incubation period, the culture medium was removed, and the cells were harvested by trypsinization and centrifuged at 980 g for 5 min at 4° C. The cellular pellet was washed with saline solution to remove possible traces of residual extracellular compounds, centrifuged, and preserved at −80° C. for further analysis.
Intracellular ciprofloxacin was quantified by ultra-high-performance liquid chromatography coupled to tandem mass spectrometry (UHPLC-MS/MS). […] Transition monitored for ciprofloxacin was m/z 332.2→288.2, with cone voltage 35 V and collision energy 20 eV.

dose dependence of the penetration enhancing effect on ciprofloxacin [2]	Compound	fraction of topically instilled drug absorbed into the ocular tissue [1]
–	O=C(O)c1cn(C2CC2)c2cc(N3CCNCC3)c(F)cc2c1=O [ciprofloxacin, Ciprofloxacin]	around 1%
dose-dependent	CC1(C)O[C@@H]2C[C@H]3[C@@H]4C[C@H](F)C5=CC(=O)C=C[C@]5(C)[C@@]4(F)[C@@H](O)C[C@]3(C)[C@]2(C(=O)CO)O1 [fluocinolone acetonide, Fluocinolone acetonide]	–
